Experiments:
IKZF1 = IKZF1 (Homo sapiens (Human), UniProt Q13422+Q96SW2); assay: In vitro IKZF1 HiBit Assay (HEK293T Flp-in-HiBiT-IKZF1 stable cell line); format: cell-based; settings: HEK293T Flp-in-HiBiT-IKZF1 stable cell line, 6 hrs incubation; for DC50: read-out: IKZF1 HiBit DC50; for Dmax: HEK-293T, read-out: IKZF1 HiBit Dmax (%)
Method: In Vitro IKZF1 HiBit Assay
The HiBiT protein tagging system was applied to modified Cells: modified HEK293T Flp-in-HiBiT-IKZF1 stable cell line (polyclone) via a CRISPR/Cas9-mediated insertion of the HiBiT peptide tag (Promega™) to the N-terminus of the […] gene locus (Neon™ transfection system).
25 nL of diluted compound is transferred to assay plates (Corning3571) using ECHO550, the final DMSO concentration @ 0.1%. The cells are seeded in 3000/25 μL/well to compound plates. The plates are incubated for 6 hrs in TC incubator. The amount of Nano-Glo® HiBiT lytic reagent needed to perform the desired experiments is calculated. The Nano-Glo® HiBiT lytic reagent is brought to room temperature. The LgBiT protein is diluted to 1:100 and the Nano-Glo® HiBiT lytic substrate is brought to 1:50 into an appropriate volume of room temperature Nano-Glo® HiBiT lytic buffer. 15 μL of the detection reagent (or without LgBiT) is dispensed to corresponding well according to the layout. The plate is shaked for 10 mins at room temperature. After briefly centrifuge, the plateis read on Envision. At the indicated timepoints, the Nano-Glo® HiBiT lytic detection system (Promega™) was utilized for detecting bioluminescence of the HiBiT tag in treated cells: abundance of the tag is proportionate to the level of luminescence. Following normalization to DMSO, dose-response curves were plotted (GraphPad Prism) to determine the concentration points at which 50% of HiBiT-Ikaros degradation was achieved by each compound. The extent of degradation (range of luminescence) from the highest to lowest concentration points was calculated to determine the Dmax.
(§1) DC50, A: <1 nM; B: 1-10 nM; C: 10-100 nM; D: 100-1000 nM; E: 1000-10000 nM; F: >10,000 nM. Dmax, A: >80%; B: 60-80%; C: 40-60%; D: 20-40%; E: <20%.

IKZF2 = IKZF2 (Homo sapiens (Human), UniProt Q96SW2+Q9UKS7); assay: In vitro IKZF2 HiBit Assay (HEK293T Flp-in-HiBiT cells); format: cell-based; settings: HEK293T Flp-in-HiBiT cells, 6 hrs incubation; for DC50: read-out: IKZF2 HiBit DC50; for Dmax: HEK-293T, read-out: IKZF2 HiBit Dmax (%)
Sequence of IKZF2 (Q9UKS7 whole entry): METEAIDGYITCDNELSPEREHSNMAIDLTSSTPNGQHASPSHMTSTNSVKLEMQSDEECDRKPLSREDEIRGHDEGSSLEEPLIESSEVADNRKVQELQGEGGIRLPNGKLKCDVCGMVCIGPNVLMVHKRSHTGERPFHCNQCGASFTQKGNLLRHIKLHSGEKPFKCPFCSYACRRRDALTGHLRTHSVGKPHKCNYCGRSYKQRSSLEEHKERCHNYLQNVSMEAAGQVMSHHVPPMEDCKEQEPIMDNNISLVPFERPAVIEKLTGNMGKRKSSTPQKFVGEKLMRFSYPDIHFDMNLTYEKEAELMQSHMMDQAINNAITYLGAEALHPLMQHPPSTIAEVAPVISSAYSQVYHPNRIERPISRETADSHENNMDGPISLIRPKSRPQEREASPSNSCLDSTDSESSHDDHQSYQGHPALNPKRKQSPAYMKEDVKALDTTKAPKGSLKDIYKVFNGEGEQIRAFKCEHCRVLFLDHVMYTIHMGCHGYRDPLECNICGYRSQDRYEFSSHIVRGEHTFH
Sequence of IKZF2 (Q96SW2 whole entry): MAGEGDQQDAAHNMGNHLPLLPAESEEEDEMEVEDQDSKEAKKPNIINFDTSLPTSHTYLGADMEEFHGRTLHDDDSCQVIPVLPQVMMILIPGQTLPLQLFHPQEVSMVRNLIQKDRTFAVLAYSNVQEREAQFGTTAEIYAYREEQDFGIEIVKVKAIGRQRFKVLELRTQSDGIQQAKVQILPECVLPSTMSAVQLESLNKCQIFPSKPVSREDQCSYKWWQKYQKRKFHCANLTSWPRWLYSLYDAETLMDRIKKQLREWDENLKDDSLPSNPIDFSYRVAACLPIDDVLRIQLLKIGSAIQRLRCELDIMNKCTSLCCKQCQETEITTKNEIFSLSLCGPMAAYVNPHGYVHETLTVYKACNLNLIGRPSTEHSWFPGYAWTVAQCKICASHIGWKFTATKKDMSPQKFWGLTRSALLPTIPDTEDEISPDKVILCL
Sequence of IKZF2 (Q16531 2-1140 partner): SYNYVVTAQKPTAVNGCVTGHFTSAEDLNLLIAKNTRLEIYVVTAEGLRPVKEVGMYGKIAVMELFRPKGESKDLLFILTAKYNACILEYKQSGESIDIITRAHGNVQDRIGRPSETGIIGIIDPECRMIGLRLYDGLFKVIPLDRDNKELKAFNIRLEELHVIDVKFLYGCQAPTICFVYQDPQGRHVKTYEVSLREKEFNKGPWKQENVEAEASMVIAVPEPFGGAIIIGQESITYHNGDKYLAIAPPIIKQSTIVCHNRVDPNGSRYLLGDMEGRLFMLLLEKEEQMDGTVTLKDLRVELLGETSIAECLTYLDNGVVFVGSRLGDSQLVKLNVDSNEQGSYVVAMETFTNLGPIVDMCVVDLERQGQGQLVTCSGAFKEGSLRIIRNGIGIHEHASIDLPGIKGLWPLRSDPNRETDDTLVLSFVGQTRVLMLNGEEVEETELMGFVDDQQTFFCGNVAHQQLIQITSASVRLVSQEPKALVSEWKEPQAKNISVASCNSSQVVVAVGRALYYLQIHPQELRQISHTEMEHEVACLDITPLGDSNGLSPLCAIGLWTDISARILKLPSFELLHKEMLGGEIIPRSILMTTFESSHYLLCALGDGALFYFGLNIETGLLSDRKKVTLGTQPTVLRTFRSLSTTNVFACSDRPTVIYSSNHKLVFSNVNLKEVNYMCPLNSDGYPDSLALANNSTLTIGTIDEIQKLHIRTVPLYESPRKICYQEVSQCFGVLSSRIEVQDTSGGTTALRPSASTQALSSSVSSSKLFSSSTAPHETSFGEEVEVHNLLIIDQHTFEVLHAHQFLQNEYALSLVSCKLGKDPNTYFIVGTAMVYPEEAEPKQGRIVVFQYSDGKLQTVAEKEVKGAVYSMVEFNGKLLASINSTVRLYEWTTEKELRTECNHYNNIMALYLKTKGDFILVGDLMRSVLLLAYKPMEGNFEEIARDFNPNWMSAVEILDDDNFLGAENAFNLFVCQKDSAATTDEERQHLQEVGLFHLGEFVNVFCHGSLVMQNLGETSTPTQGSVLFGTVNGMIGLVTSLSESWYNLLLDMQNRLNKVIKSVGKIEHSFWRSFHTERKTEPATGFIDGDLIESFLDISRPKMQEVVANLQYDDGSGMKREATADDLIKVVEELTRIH
Method: In Vitro IKZF2 HiBit Assay
The HiBiT protein tagging system was applied to modified HEK293T Flp-in-HiBiT cells (polyclone) via a CRISPR/Cas9-mediated insertion of the HiBiT peptide tag (Promega™) to the N-terminus of the IKZF2 gene locus (Neon™ transfection system). Test and reference compounds are diluted from 1 mM at 3 folds for 11 doses. 25 nL of diluted compound is transfered to assay plates (Corning3570) using ECHO550, the final DMSO concentration @ 0.1%. The cells are seeded in 3000/25 μL/well to compound plates. It is then incubated for 6 hrs in TC incubator. The amount of Nano-Glo® HiBiT lytic reagent needed to perform the desired experiments is calculated. The Nano-Glo® HiBiT lytic reagent is brought to room temperature. The LgBiT protein is diluted to 1:100 and the Nano-Glo® HiBiT lytic substrate is diluted to 1:50 into an appropriate volume of room temperature Nano-Glo® HiBiT lytic buffer. 15 μL of the detection reagent (or without LgBiT) is dispensed to corresponding well according to the layout. The plate is then shaked for 10 mins at room temperature. After briefly centrifuge, the plate is read on Envision. At the indicated timepoints, the Nano-Glo® HiBiT lytic detection system (Promega™) was utilized for detecting bioluminescence of the HiBiT tag in treated cells: abundance of the tag is proportionate to the level of luminescence. Following normalization to DMSO, dose-response curves were plotted (GraphPad Prism) to determine the concentration points at which 50% of HiBiT-Helios degradation was achieved by each compound. The extent of degradation (range of luminescence) from the highest to lowest concentration points was calculated to determine the Dmax.
as §1

Sequence of IKZF1 (Q13422 whole entry): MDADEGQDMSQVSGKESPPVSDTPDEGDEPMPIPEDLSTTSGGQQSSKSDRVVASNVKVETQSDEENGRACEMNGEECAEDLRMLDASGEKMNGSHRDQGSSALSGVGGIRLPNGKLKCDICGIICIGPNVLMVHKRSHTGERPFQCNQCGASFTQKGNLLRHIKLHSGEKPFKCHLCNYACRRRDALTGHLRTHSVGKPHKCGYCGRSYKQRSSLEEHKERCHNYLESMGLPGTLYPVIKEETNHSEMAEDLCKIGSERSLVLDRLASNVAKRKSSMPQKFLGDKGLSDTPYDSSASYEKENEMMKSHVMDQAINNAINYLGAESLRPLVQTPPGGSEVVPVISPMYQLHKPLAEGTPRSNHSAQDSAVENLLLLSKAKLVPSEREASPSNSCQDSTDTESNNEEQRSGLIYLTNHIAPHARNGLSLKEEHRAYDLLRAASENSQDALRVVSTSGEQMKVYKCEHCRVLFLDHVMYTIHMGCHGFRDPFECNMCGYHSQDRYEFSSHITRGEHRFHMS
Sequence of IKZF1 (Q96SW2 whole entry): as the sequence (Q96SW2 whole entry) above
Sequence of IKZF1 (Q16531 2-1140 partner): as the sequence (Q16531 2-1140 partner) above

O=C1CCC(N2Cc3cc(-c4cc(CN5CCCC5)c5nccc(C6CCC6)c5n4)ccc3C2=O)C(=O)N1 (centres unmarked) [Example 247, 3-(5-(8-cyclobutyl-4-(pyrrolidin-1-ylmethyl)-1,5-naphthyridin-2-yl)-1-oxoisoindolin-2-yl) piperidine-2,6-dione]
DC50 (IKZF1): > 10000 nM | Dmax (IKZF1): < 20% | DC50 (IKZF2): 10 to 100 nM | Dmax (IKZF2): 40 to 60%

Cc1cc(-c2ccc3c(c2)CN(C2CCC(=O)NC2=O)C3=O)nc2c1nc(CN1CCCC1)n2C1COC1 (centres unmarked) [Example 259, 3-(5-(7-methyl-3-(oxetan-3-yl)-2-(pyrrolidin-1-ylmethyl)-3H-imidazo[4,5-b]pyridin-5-yl)-1-oxoisoindolin-2-yl) piperidine-2,6-dione]
DC50 (IKZF1): > 10000 nM | Dmax (IKZF1): < 20% | DC50 (IKZF2): > 10000 nM | Dmax (IKZF2): < 20%

O=C1CCC(N2Cc3cc(-c4cc(CN5CCCC5)c5nccc(OCCO)c5n4)ccc3C2=O)C(=O)N1 (centres unmarked) [Example 285, 3-(5-(8-(2-hydroxyethoxy)-4-(pyrrolidin-1-ylmethyl)-1,5-naphthyridin-2-yl)-1-oxoisoindolin-2-yl) piperidine-2,6-dione]
DC50 (IKZF1): > 10000 nM | Dmax (IKZF1): < 20% | DC50 (IKZF2): 1 to 10 nM | Dmax (IKZF2): 20 to 40%

O=C1CC[C@H](N2Cc3cc(-c4cc(CN5CCCC5)c5ccn(-c6ncco6)c5n4)ccc3C2=O)C(=O)N1 [Example 267, (S)-3-(5-(1-(oxazol-2-yl)-4-(pyrrolidin-1-ylmethyl)-1H-pyrrolo[2,3-b]pyridin-6-yl)-1-oxoisoindolin-2-yl) piperidine-2,6-dione]
DC50 (IKZF1): > 10000 nM | Dmax (IKZF1): < 20% | DC50 (IKZF2): 1 to 10 nM | Dmax (IKZF2): 60 to 80%

O=C1CCC(N2Cc3cc(-c4cc(CN5CCCC5CF)c5ccn(C6COC6)c5n4)ccc3C2=O)C(=O)N1 (centres unmarked) [Example 257, 3-(5-(4-((2-(fluoromethyl)pyrrolidin-1-yl)methyl)-1-(oxetan-3-yl)-1H-pyrrolo[2,3-b]pyridin-6-yl)-1-oxoisoindolin-2-yl) piperidine-2,6-dione]
DC50 (IKZF1): 1 to 10 nM | Dmax (IKZF1): 20 to 40% | DC50 (IKZF2): 1 to 10 nM | Dmax (IKZF2): > 80%

Cc1cc(-c2ccc3c(c2)CN(C2CCC(=O)NC2=O)C3=O)nc2oc(CN3CCCC3)nc12 (centres unmarked) [Example 198, 3-(5-(7-methyl-2-(pyrrolidin-1-ylmethyl)oxazolo [5,4-b]pyridin-5-yl)-1-oxoisoindolin-2-yl) piperidine-2,6-dione]
DC50 (IKZF1): > 10000 nM | Dmax (IKZF1): < 20% | DC50 (IKZF2): 10 to 100 nM | Dmax (IKZF2): 40 to 60%

O=C1CCC(N2Cc3cc(-c4cc(CN5CCCC5C(F)(F)F)c5ccn(C6COC6)c5n4)ccc3C2=O)C(=O)N1 (centres unmarked) [Example 253, 3-(5-(1-(oxetan-3-yl)-4-((2-(trifluoromethyl)pyrrolidin-1-yl)methyl)-1H-pyrrolo[2,3-b]pyridin-6-yl)-1-oxoisoindolin-2-yl) piperidine-2,6-dione]
DC50 (IKZF1): > 10000 nM | Dmax (IKZF1): < 20% | DC50 (IKZF2): 10 to 100 nM | Dmax (IKZF2): 40 to 60%

O=C1CCC(N2Cc3cc(-c4cc(CN5CCCC5C(F)F)c5ccn(C6COC6)c5n4)ccc3C2=O)C(=O)N1 (centres unmarked) [Example 252, 3-(5-(4-((2-(difluoromethyl)pyrrolidin-1-yl)methyl)-1-(oxetan-3-yl)-1H-pyrrolo[2,3-b]pyridin-6-yl)-1-oxoisoindolin-2-yl) piperidine-2,6-dione]
DC50 (IKZF1): > 10000 nM | Dmax (IKZF1): < 20% | DC50 (IKZF2): 10 to 100 nM | Dmax (IKZF2): 40 to 60%

CC(C)Nc1n[nH]c2c(CN3CC4(COC4)C3)cc(-c3ccc4c(c3F)CN(C3CCC(=O)NC3=O)C4=O)nc12 (centres unmarked) [Example 287, 3-(5-(7-((2-oxa-6-azaspiro[3.3]heptan-6-yl)methyl)-3-(isopropylamino)-1H-pyrazolo[4,3-b]pyridin-5-yl)-4-fluoro-1-oxoisoindolin-2-yl) piperidine-2,6-dione]
DC50 (IKZF1): 100 to 1000 nM | Dmax (IKZF1): 20 to 40% | DC50 (IKZF2): 10 to 100 nM | Dmax (IKZF2): 60 to 80%

O=C1CCC(N2Cc3cc(-c4cc(CN5CC(CO)C5)c5ccn(C6CC6)c5n4)ccc3C2=O)C(=O)N1 (centres unmarked) [Example 152, 3-(5-(1-cyclopropyl-4-((3-(hydroxymethyl)azetidin-1-yl)methyl)-1H-pyrrolo[2,3-b]pyridin-6-yl)-1-oxoisoindolin-2-yl) piperidine-2,6-dione]
DC50 (IKZF1): 100 to 1000 nM | Dmax (IKZF1): 20 to 40% | DC50 (IKZF2): 10 to 100 nM | Dmax (IKZF2): > 80%

Cc1nc2c(CN3CCCC3)cc(-c3ccc4c(c3)CN(C3CCC(=O)NC3=O)C4=O)nc2n1C1COC1 (centres unmarked) [Example 258, 3-(5-(2-methyl-3-(oxetan-3-yl)-7-(pyrrolidin-1-ylmethyl)-3H-imidazo[4,5-b]pyridin-5-yl)-1-oxoisoindolin-2-yl) piperidine-2,6-dione]
DC50 (IKZF1): > 10000 nM | Dmax (IKZF1): < 20% | DC50 (IKZF2): 10 to 100 nM | Dmax (IKZF2): 60 to 80%

O=C1CCC(N2Cc3cc(-c4cc(CN5CCCC5)c5c(C(F)(F)F)n[nH]c5n4)ccc3C2=O)C(=O)N1 (centres unmarked) [Example 134, 3-(1-oxo-5-(4-(pyrrolidin-1-ylmethyl)-3-(trifluoromethyl)-1H-pyrazolo[3,4-b]pyridin-6-yl)isoindolin-2-yl) piperidine-2,6-dione]
DC50 (IKZF1): > 10000 nM | Dmax (IKZF1): < 20% | DC50 (IKZF2): 1 to 10 nM | Dmax (IKZF2): > 80%

CC(Oc1ccnc2c(CN3CCCC3)cc(-c3ccc4c(c3)CN(C3CCC(=O)NC3=O)C4=O)nc12)C(F)(F)F (centres unmarked) [Example 279, 3-(1-oxo-5-(4-(pyrrolidin-1-ylmethyl)-8-((1,1,1-trifluoropropan-2-yl)oxy)-1,5-naphthyridin-2-yl)isoindolin-2-yl) piperidine-2,6-dione]
DC50 (IKZF1): > 10000 nM | Dmax (IKZF1): < 20% | DC50 (IKZF2): 1 to 10 nM | Dmax (IKZF2): 60 to 80%

O=C1CCC(N2Cc3cc(-c4cc(CN5CCCC5)c5nccc(OC6COC6)c5n4)ccc3C2=O)C(=O)N1 (centres unmarked) [Example 251, 3-(5-(8-(oxetan-3-yloxy)-4-(pyrrolidin-1-ylmethyl)-1,5-naphthyridin-2-yl)-1-oxoisoindolin-2-yl) piperidine-2,6-dione]
DC50 (IKZF1): > 10000 nM | Dmax (IKZF1): < 20% | DC50 (IKZF2): 10 to 100 nM | Dmax (IKZF2): 60 to 80%

O=C1CCC(N2Cc3cc(-c4cc(CN5CC(O)C5)c5ccn(C6CC6)c5n4)ccc3C2=O)C(=O)N1 (centres unmarked) [Example 135, 3-(5-(1-cyclopropyl-4-((3-hydroxyazetidin-1-yl)methyl)-1H-pyrrolo[2,3-b]pyridin-6-yl)-1-oxoisoindolin-2-yl) piperidine-2,6-dione]
DC50 (IKZF1): > 10000 nM | Dmax (IKZF1): < 20% | DC50 (IKZF2): 1 to 10 nM | Dmax (IKZF2): > 80%

CC(C)CC1CN(Cc2cc(-c3ccc4c(c3)CN(C3CCC(=O)NC3=O)C4=O)nc3[nH]ccc23)CC1O (centres unmarked) [Example 138, 3-(5-(4-((3-hydroxy-4-isobutylpyrrolidin-1-yl)methyl)-1H-pyrrolo[2,3-b]pyridin-6-yl)-1-oxoisoindolin-2-yl) piperidine-2,6-dione]
DC50 (IKZF1): 100 to 1000 nM | Dmax (IKZF1): 20 to 40% | DC50 (IKZF2): 1 to 10 nM | Dmax (IKZF2): > 80%

O=C1CCC(N2Cc3cc(-c4cc(CN5CCCC5)c5[nH]nc(C6CC6)c5n4)ccc3C2=O)C(=O)N1 (centres unmarked) [Example 202, 3-(5-(3-cyclopropyl-7-(pyrrolidin-1-ylmethyl)-1H-pyrazolo[4,3-b]pyridin-5-yl)-1-oxoisoindolin-2-yl) piperidine-2,6-dione]
DC50 (IKZF1): 1 to 10 nM | Dmax (IKZF1): 40 to 60% | DC50 (IKZF2): 1 to 10 nM | Dmax (IKZF2): > 80%

From patent US20250214991A1 (Oncopia Therapeutics, Inc. d/b/a/ SK Life Science Labs, priority 2022, published 2025)
